Test results: US4563462A, “Substance AX-2, a process for producing the same and an antitumor composition containing the same” (Kyowa Hakko Kogyo Kabushiki, priority 1982, dated 1986)

What was measured:
[1] = system: Melanoma B16 tumour; assay: Effects on Melanoma B16 tumour (survival, ip.); format: in vivo, C57 BL/6 male mouse
Description: (2) Effects on Melanoma B16 tumour:
Tumour cells were collected from Melanoma B16 tumour cells lined in the abdominal cavity of a C57 BL/6 male mouse and suspended in a sterilized physiological solution of sodium chloride at a concentration of 2.5×10^7 cell/ml, of which 0.2 ml was implanted into the abdominal cavity of each mouse. The anti-tumour activity was indicated by T/C % where T and C respectively indicate the average survival days of treated and untreated groups.
As apparent from this table, it was noted that by administration of AX-2 in an amount of 6 mg/kg, the T/C value was more than 277% and 1/5 of the mice were alive 60 days after the beginning of the administration. The therapeutic index [a dose showing a maximum therapeutic effect/a dose showing a T/C of 130%] was 193.

[2] = Solubility; format: physicochemical
[3] = system: Sarcoma 180 solid tumour; assay: Effect on Sarcoma 180 solid tumour (volume ratio T/C, iv.); format: in vivo, ddy male mouse; details: for T/C (tumour volume ratio): 7 days after administration; for Survials (7 days): Sarcoma 180 mice
Description: (1) Effect on Sarcoma 180 solid tumour:
(§1) On each occasion, 5×10^6 cells of Sarcoma 180 solid tumour were implanted into the abdominal cavity of a ddy male mouse. 7 days after this, the cells were collected from the ascites.The cells were washed once with a sterilized physiological solution of sodium chloride and suspended in a sterilized physiological solution of sodium chloride at a concentration of 5×10^7 cells/ml, of which 0.1 ml was implanted under the skin at the right artpit of a ddy male mouse having a weight of 20±2 g. 24 hours after this, the active substance was administered into the vein at the tail of each mouse of a group consisting of 5 mice. In order to investigate the anti-tumour activity, 7 days after administration of AX-2, the major axis (a) and minor axis (b) of the tumour were measured, from which the volume of the tumour was calculated as a X b^2 /2. The effect of AX-2 is expressed by T/C which denotes the volume ratio of T [mice administered with AX-2 ] to C (untreated group). Table 1 indicates the effect of AX-2 agsinst Sarcoma 180 solid tumour by injection (iv.).
A T/C of 0.25 was obtained from the group, to which each 15 mg/kg of AX-2 had been administered. In this table, ED50 denotes a dose capable of reducing the volume of the tumour to 50% of the corresponding volume of the control group. Such volumes were calculated by plotting a relation between the dose and T/C on a logarithmic graph which indiates T/C on the ordinate and the dose on the abscissa, and calculating the dose and anti-tumour activity as a straight line by the method of least squares. The dose corresponding to T/C of 0.5 is defined as ED50.

[4] = Acute toxicity (LD50) of AX-2, single injection, 14 days observation, Behrens-Korber's method; design: species or system Mice (ddy strain); details: mouse, in vivo, male ddy mice
Source text: The acute toxicity and anti-tumour activity of AX-2 are as follows. I. Acute toxicity (LD50) of AX-2:
Mice (ddy strain; male; weight 20±2 g; each group consisting of 5 mice) were used as test animals. On each occasion, the active substance of this invention was once administered to the animal by injection (ip. or iv.).

[5] = system: Peripherical leucocytes; assay: Peripherical leucocytes count (WBC) in Sarcoma 180 bearing mice; format: in vivo, ddy male mouse; details: blood 4 days after tumour implantation
Description: as §1
The peripherical leucocytes count (WBC) was measured by using a micro cell counter in the following manner. Sarcoma 180 solid tumour was implanted by injection (ip.). 4 days after this, blood was collected from the eye ground, of which 20 μl was added to 9.98 ml of Cellkit-7 (a reagent commercially available from Toyo Rika K.K., Japan) to dissolve the red cells. In this solution a drop of saponin was dispersed, followed by measuring with a micro cell counter.

Q: What does the source list for COC1=C(C)C(=O)C2=C(C1=O)C(COC(N)=O)C1(OC)NCC3C1N23 (stereo not shown) [AX-2]?
A: therapeutic index [a dose showing a maximum therapeutic effect/a dose showing a T/C of 130%] [1]: 193; Average survival days (days ± SD) ([1]; 0.031 mg/kg): 18.4 ± 1.5 days; Survived after 60 days after implantation ([1]; 0.031 mg/kg): 0/5; T/C (average survival days treated/untreated) ([1]; 0.031 mg/kg): 144%; Average survival days (days ± SD) ([1]; 0.063 mg/kg): 13.0 ± 1.7 days; Survived after 60 days after implantation ([1]; 0.063 mg/kg): 0/5; T/C (average survival days treated/untreated) ([1]; 0.063 mg/kg): 140%; Average survival days (days ± SD) ([1]; 0.125 mg/kg): 19.4 ± 2.0 days; Survived after 60 days after implantation ([1]; 0.125 mg/kg): 0/5; T/C (average survival days treated/untreated) ([1]; 0.125 mg/kg): 152%; Average survival days (days ± SD) ([1]; 0.25 mg/kg): 17.8 ± 1.1 days; Survived after 60 days after implantation ([1]; 0.25 mg/kg): 0/5; T/C (average survival days treated/untreated) ([1]; 0.25 mg/kg): 140%; Average survival days (days ± SD) ([1]; 0.5 mg/kg): 21.0 ± 2.8 days; Survived after 60 days after implantation ([1]; 0.5 mg/kg): 0/5; T/C (average survival days treated/untreated) ([1]; 0.5 mg/kg): 164%; Average survival days (days ± SD) ([1]; 1.0 mg/kg): 24.0 ± 3.5 days; Survived after 60 days after implantation ([1]; 1.0 mg/kg): 0/5; T/C (average survival days treated/untreated) ([1]; 1.0 mg/kg): 189%; Average survival days (days ± SD) ([1]; 2.0 mg/kg): 27.4 ± 5.4 days; Survived after 60 days after implantation ([1]; 2.0 mg/kg): 0/5; T/C (average survival days treated/untreated) ([1]; 2.0 mg/kg): 214%; Average survival days (days ± SD) ([1]; 4.0 mg/kg): 33.4 ± 9.2 days; Survived after 60 days after implantation ([1]; 4.0 mg/kg): 0/5; T/C (average survival days treated/untreated) ([1]; 4.0 mg/kg): 261%; Average survival days (days ± SD) ([1]; 6.0 mg/kg): 35.4 ± 5.3 days; Survived after 60 days after implantation ([1]; 6.0 mg/kg): 1/5; Average survival days (days ± SD) ([1]; 8.0 mg/kg): 10.6 ± 4.2 days; Survived after 60 days after implantation ([1]; 8.0 mg/kg): 0/5; T/C (average survival days treated/untreated) ([1]; 8.0 mg/kg): 93%; Average survival days (days ± SD) ([1]; 12.0 mg/kg): 4.8 ± 1.6 days; Survived after 60 days after implantation ([1]; 12.0 mg/kg): 0/5; T/C (average survival days treated/untreated) ([1]; 12.0 mg/kg): 26%; Solubility ([2]; ethyl acetate, chloroform, acetone, methanol and ethanol): Soluble; Solubility ([2]; petroleum ether and n-hexane): Insoluble; Solubility ([2]; water): Slightly soluble; T/C (tumour volume ratio) ([3]; 1.88 mg/kg): 0.77; Survials (7 days) ([3]; 1.88 mg/kg): 4/4; T/C (tumour volume ratio) ([3]; 3.75 mg/kg): 0.64; Survials (7 days) ([3]; 3.75 mg/kg): 4/4; T/C (tumour volume ratio) ([3]; 7.5 mg/kg): 0.42; Survials (7 days) ([3]; 7.5 mg/kg): 4/4; T/C (tumour volume ratio) ([3]; 10 mg/kg): 0.34; Survials (7 days) ([3]; 10 mg/kg): 4/4; T/C (tumour volume ratio) ([3]; 15 mg/kg): 0.25; Survials (7 days) ([3]; 15 mg/kg): 4/4; T/C (tumour volume ratio) ([3]; 30 mg/kg): 0.05; Survials (7 days) ([3]; 30 mg/kg): 3/4; effect (dose dependence) ([3]; 7.5 to 15 mg/kg): the effect increased according to the increased dose; ED50 ([3]; Mus musculus, Sarcoma-180, 168 h, least squares from dose vs T/C log plot, read-out: ED50 (dose reducing tumour volume to 50% of control, T/C 0.5)): 5.7 mg/kg; LD50 at 336 h ([4]; ip.): 7.8 mg/kg; LD50 at 336 h ([4]; iv.): 27 mg/kg; Peripherical leucocytes count (WBC) ± SD/mm^3 ([5]; 1.88 mg/kg): 7730 ± 49 /mm^3; Peripherical leucocytes count (WBC) ± SD/mm^3 ([5]; 3.75 mg/kg): 6730 ± 115 /mm^3; Peripherical leucocytes count (WBC) ± SD/mm^3 ([5]; 7.5 mg/kg): 4100 ± 55 /mm^3; Peripherical leucocytes count (WBC) ± SD/mm^3 ([5]; 10 mg/kg): 2800 ± 80 /mm^3; Peripherical leucocytes count (WBC) ± SD/mm^3 ([5]; 15 mg/kg): 2950 ± 42 /mm^3; Peripherical leucocytes count (WBC) ± SD/mm^3 ([5]; 30 mg/kg): 2300 ± 60 /mm^3
